Key:
Arabidopsis thaliana [1] = test: Root growth-promoting activity test (Example 9); type: in vivo; conditions: main root length vs control section, 22° C., 10 days
Procedure: (§1) Enshi standard medium having the following composition (see Table 10) was prepared. To cluster tubes was dispensed each 4 μl of a solution of a chemical substance in DMSO to a final concentration of 0.001 ppm to 10 ppm, and then, was dispensed each 600 μl of the sterilized Enshi standard medium. Then the resulting solution was well mixed. In each of the cluster tubes, 10-20 seeds of Arabidopsis thaliana were sown, and cultured at 22° C. for 10 days in the light. Then, the length of main roots (average main roots) generated from the seeds of Arabidopsis thaliana was measured. An average of eight repeats was determined, and a root growth rate was determined according to the following equation.
(§2) Root growth rate (%)=(Average main root length in chemical substance-treated section)/(Average main root length in control section)×100

Arabidopsis thaliana [2] = test: Root growth-promoting activity test (Example 22); type: in vivo; conditions: main root length vs control section, 22° C., 10 days
Procedure: as §1, with “18)” for “10)”
as §2
Enshi standard medium determined having the following composition (Table 18) was prepared. A DMSO solution of a chemical substance was dispensed by 4 μl to cluster tubes to a final concentration of 0.001 ppm to 10 ppm and the sterilized Enshi standard medium was dispensed by 600 μl and then the resulting solution was well mixed. 10-20 seeds of A. thaliana per cluster tube were sown in the cluster tubes. After culture at 22° C. for 10 days in bright light, the length of main roots (average main roots) took from seeds of A. thaliana was measured. An average of eight repeats was determined and the root growth rate was determined.
Root growth rate (%)=(Average main root length of chemical substance-treated section)/(Average main root length of control section)×100

cytokinin receptor CRE1 = target: T1, cytokinin receptor CRE1 (Arabidopsis thaliana, UniProt Q9C5U0, S567G/T1018A); test: Inhibition of intracellular signaling from plant-derived cytokinin receptor, growth of transformed yeast cell TM182-CRE1; type: cell-based; conditions: trans-zeatin 0.6 ppm, chemical substance 2 ppm; for Relative growth rate (%) in test section of test substance to control section, Transformed cell TM182-CRE1: 30° C., 24 hours, turbidity OD 600; for Activity (%) of test substance for inhibiting intracellular signaling from plant-derived cytokinin receptor of cell: = 100 − relative growth rate of TM182-CRE1
T1 construct: expressed in transfected cells; host or cells: Saccharomyces cerevisiae TM182 (sln1Δ) transformed with p415CYC-CRE1
Procedure: (§3) The transformed cell TM182-CRE1 and the transformed cell TM182-p415CYC1 obtained in Example 6 were each inoculated in 10 ml of a DOLU+Gal medium, and preincubated at 30° C. for 18 hours to obtain a preincubation liquid for each of the transformed cells. The preincubation liquid was diluted with a DOLU+Glu medium for the transformed cell TM182-CRE1 or with a DOLU+Gal medium for the transformed cell TM182-p415CYC1 until OD600=0.1 was reached, to obtain a preincubation dilution for each of the transformed cells.
(§4) To each well of a 96-well plate was added 1 μl of a 200 ppm solution of a test substance in dimethyl sulfoxide (DMSO) to prepare an Assay plate. At the same time, as controls, only 1 μl of DMSO was added to a part of wells. An assay plate for the transformed cell TM182-CRE1 and an assay plate for the transformed cell TM182-p415CYC1 were prepared.
(§5) A 10,000 ppm solution of trans-zeatin (cytokinin) in DMSO was 50-fold diluted with a DOLU+Gul medium to 200 ppm. The 200 ppm trans-zeatin solution was added in an amount of 3/1,000 volume to each of the above-described preincubation dilution to prepare each preincubation dilution containing trans-zeatin at 0.6 ppm. The 0.6 ppm preincubation dilution was added in an amount of 100 μl to each wells of the assay plate for each transformed cell. The plates were incubated at 30° C. for 24 hours. Then, turbidity (OD 600) of each well was measured by using a plate reader. The activity of the test substance for inhibiting intracellular signaling from a plant-derived cytokinin receptor of a cell was tested by comparing the measured turbidity with the turbidity of the control well.
(§6) (Relative growth rate in test section to control section) [%]=[(Turbidity in test section)−(Turbidity in blank)]/[(Turbidity in control section)−(Turbidity in blank)]×100 (Activity of inhibiting intracellular signaling from plant-derived cytokinin receptor of cell) [%]=100−(Relative growth rate in test section to control section)
(§7) In all cases, the existing concentration of trans-zeatin was adjusted to 0.6 ppm and the existing concentration of a chemical substance was adjusted to 2 ppm.
(§8) In all cases, the existing concentration of trans-zeatin was adjusted to 0.6 ppm and the existing concentration of a chemical substance was adjusted to 2 […].

[3] = system: transformed cell TM182-p415CYC1; test: Control growth test with transformed yeast cell TM182-p415CYC1 (toxicity to yeast); type: cell-based; conditions: trans-zeatin 0.6 ppm; chemical substance 2 ppm; 30° C., 24 hours; turbidity OD 600
Procedure: as §3, §4, §5, §6, §7, §8

[4] = test final concentration 2.5 ppm (concentration with highest root growth rate)
[5] = test final concentration 2.5 ppm (highest root growth rate)
[6] = test final concentration 10 ppm (concentration with highest root growth rate)
[7] = test final concentration 10 ppm (highest root growth rate)
[8] = test final concentration 1.25 ppm (concentration with highest root growth rate)
[9] = test final concentration 1.25 ppm (highest root growth rate)
[10] = test final concentration 5 ppm (concentration with highest root growth rate)

T1 sequence (Q9C5U0 24-1080 S567G/T1018A): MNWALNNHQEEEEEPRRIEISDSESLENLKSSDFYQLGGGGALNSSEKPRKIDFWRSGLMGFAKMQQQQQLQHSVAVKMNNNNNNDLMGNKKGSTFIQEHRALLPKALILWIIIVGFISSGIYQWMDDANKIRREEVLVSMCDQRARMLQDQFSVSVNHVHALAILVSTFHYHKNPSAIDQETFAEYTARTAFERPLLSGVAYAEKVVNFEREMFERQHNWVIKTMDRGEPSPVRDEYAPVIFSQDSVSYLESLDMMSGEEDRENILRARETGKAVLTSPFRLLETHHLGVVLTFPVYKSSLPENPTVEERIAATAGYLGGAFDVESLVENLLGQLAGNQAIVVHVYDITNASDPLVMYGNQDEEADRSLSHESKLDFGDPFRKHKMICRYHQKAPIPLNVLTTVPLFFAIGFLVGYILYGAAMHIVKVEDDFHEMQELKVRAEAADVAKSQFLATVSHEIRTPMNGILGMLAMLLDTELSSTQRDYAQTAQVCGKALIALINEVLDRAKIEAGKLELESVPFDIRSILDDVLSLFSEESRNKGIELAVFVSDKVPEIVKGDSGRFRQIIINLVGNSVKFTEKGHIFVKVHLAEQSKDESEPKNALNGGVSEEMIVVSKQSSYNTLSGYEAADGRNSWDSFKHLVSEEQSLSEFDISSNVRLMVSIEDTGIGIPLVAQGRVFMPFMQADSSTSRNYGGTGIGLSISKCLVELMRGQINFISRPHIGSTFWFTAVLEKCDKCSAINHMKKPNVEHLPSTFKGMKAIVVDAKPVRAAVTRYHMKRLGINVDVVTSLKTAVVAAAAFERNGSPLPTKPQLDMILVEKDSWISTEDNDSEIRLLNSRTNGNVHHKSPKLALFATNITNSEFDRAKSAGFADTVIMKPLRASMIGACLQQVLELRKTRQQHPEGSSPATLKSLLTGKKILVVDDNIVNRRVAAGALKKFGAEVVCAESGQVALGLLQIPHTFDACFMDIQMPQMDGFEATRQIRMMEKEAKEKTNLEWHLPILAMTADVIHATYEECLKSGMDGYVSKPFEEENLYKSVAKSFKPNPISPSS

SMILES | Relative growth rate (%) in test section of test substance to control section, Transformed cell TM182-CRE1 (cytokinin receptor CRE1) [%] | Activity (%) of test substance for inhibiting intracellular signaling from plant-derived cytokinin receptor of cell (cytokinin receptor CRE1) [%] | Relative growth rate (%) in test section of test substance to control section, Transformed cell TM182-p415CYC1 [3] [%] | Root growth-promoting activity (root growth rate) (Arabidopsis thaliana [1]; [6]) [%] | Root growth-promoting activity (root growth rate) (Arabidopsis thaliana [2]; [7]) [%] | other results
OCCCNc1nc(-c2ccccc2)c2cc(C(F)(F)F)ccc2n1 [Ic6-2] |  |  |  |  |  | Root growth-promoting activity (root growth rate) (Arabidopsis thaliana [1]; [4]): 155.9%; Root growth-promoting activity (root growth rate) (Arabidopsis thaliana [2]; [5]): 155.9%
C=CCNc1nc(-c2ccccc2)c2cc(Cl)ccc2n1 [Ic3-29] | 1.6 | 98.4 | 92.7 | 122.4 | 122.4 | 
CCNc1nc(-c2ccccc2)c2cc(Cl)ccc2n1 [Ic3-24] | 2.1 | 97.9 | 112.5 |  |  | Root growth-promoting activity (root growth rate) (Arabidopsis thaliana [1]; [8]): 122.8%; Root growth-promoting activity (root growth rate) (Arabidopsis thaliana [2]; [9]): 122.8%
OCCCNc1nc(-c2ccccc2)c2cccc(Cl)c2n1 [Ic11-1] | 2.2 | 97.8 | 114.5 |  |  | Root growth-promoting activity (root growth rate) (Arabidopsis thaliana [1]; [10]): 143.9%; Root growth-promoting activity (root growth rate) (Arabidopsis thaliana [2]; test final concentration 5 ppm (highest root growth rate)): 143.9%
COC(=O)CCNc1nc(-c2ccccc2)c2cc(Cl)ccc2n1 [Ic3-43] | 0.8 | 99.2 | 122.0 |  |  | Root growth-promoting activity (root growth rate) (Arabidopsis thaliana [1]; [4]): 137.9%; Root growth-promoting activity (root growth rate) (Arabidopsis thaliana [2]; [5]): 137.9%
CC(O)CNc1nc(-c2ccccc2)c2cc(Cl)ccc2n1 (centres unmarked) [Ic3-39] | −1.3 | 101.3 | 108.1 | 169.0 | 169.0 | 
CC(C)CCNc1nc(-c2ccccc2)c2cc(Cl)ccc2n1 [Ic3-10] |  |  |  | 120.6 | 120.6 | 
NCCCCNc1nc(-c2ccccc2)c2cc(Cl)ccc2n1 [Ic3-22] | 4.9 | 95.1 | 110.6 |  |  | Root growth-promoting activity (root growth rate) (Arabidopsis thaliana [1]; test final concentration 0.156 ppm (concentration with highest root growth rate)): 129.3%
N#CCNc1nc(-c2ccccc2)c2cc(Cl)ccc2n1 [Ic3-26] | 5.3 | 94.7 | 110.7 |  |  | Root growth-promoting activity (root growth rate) (Arabidopsis thaliana [1]; [10]): 136.4%
CC(C)=CCNc1nc(-c2ccccc2)c2cc(Cl)ccc2n1 [Ic3-17] |  |  |  | 121.3 | 121.3 | 
CCCNc1nc(-c2ccccc2)c2cc(Cl)ccc2n1 [Ic3-8] |  |  |  |  |  | Root growth-promoting activity (root growth rate) (Arabidopsis thaliana [1]; [8]): 136.4%; Root growth-promoting activity (root growth rate) (Arabidopsis thaliana [2]; [9]): 136.4%

— patent US8722580B2, “Agent for inhibiting cytokinin signaling” (Sumitomo Chemical Company, Limited, priority 2006, dated 2014)
